Assay [1] has as its system MIA PaCa-2 cells. The assay is described as follows: Cell Viability Assay, MIA PaCa-2. Type of assay: cell-based. Particulars: human pancreatic carcinoma, CellTiter-Glo. As to the method: (§1) MIA PaCa-2 (human pancreatic carcinoma; ATCC CRL-1420) or A549 (human lung carcinoma; ATCC CCL-185) cells were cultured in RPMI 1640 medium containing 10% fetal bovine serum and 1×penicillin/streptomycin/L-glutamine. Cells were seeded in 384-well plates at a density of 1.67E+04 cells/mL and incubated at 37° C., 5% CO2, overnight. Serially-diluted compound or DMSO was added to the cells, and plates were incubated at 37° C., 5% CO2 for 72 h. Cell viability was measured using a CellTiter-Glo® Luminescent Cell Viability Assay kit (Promega) according to the manufacturer's protocol. The luminescence signal of treated samples was normalized to DMSO control, and data were analyzed using a 4-parameter logistic model to calculate IC50 values.
(§2) The following data (Table 3) categorizes the IC50 of each compound for inhibiting enzymatic activity of KRAS^G12C in the indicated cells.
For orientation: ATP-based viability assays read luminescence as a measure of living cells.

The subject of assay [2] is A549 cells. The assay is described as follows: Cell Viability Assay, A549. Type of assay: cell-based. Particulars: human lung carcinoma, 72 h, CellTiter-Glo. As to the method:
as §1, §2

In assay [3] the target is KRAS^G12C (Homo sapiens, UniProt P01116, C118A/G12C). The assay is described as follows: Coupled Nucleotide Exchange Assay. It is filed as biochemical. Particulars: GDP-bound KRAS (aa 1-169) G12C/C118A; 2 h compound pre-incubation; SOS-mediated exchange, 30 min; cRAF binding (AlphaLISA). As to the method: The KRAS^G12C coupled nucleotide exchange assay allows for the screening and profiling of KRAS^G12C antagonists/inhibitors by monitoring the binding of an effector protein (e.g., a Ras binding domain of Raf1, RBD-cRaf) to KRAS^G12C. Purified GDP-bound KRAS protein (aa 1-169), containing both G12C and C118A amino acid substitutions and an N-terminal His-tag, was pre-incubated in assay buffer (25 mM HEPES pH 7.4, 10 mM MgCl2, 0.01% Triton X-100, either with or without 0.1% BSA) with serially diluted compound for 2 h. For all subsequent steps, BSA was omitted and DTT was added to the reaction buffer at a final concentration of 1 mM. Following compound pre-incubation, purified SOS protein (aa 564-1049) and GTP (Roche 10106399001) were added to the assay wells and incubated for an additional 30 min. To determine the extent of inhibition of SOS-mediated nucleotide exchange, purified GST-tagged cRAF (aa 1-149), nickel chelate AlphaLISA acceptor beads (PerkinElmer AL108R), and AlphaScreen glutathione donor beads (PerkinElmer 6765302) were added to the assay wells and incubated for 5-30 min. The assay plates were then read on a plate reader measuring luminescence signal. Signal intensity of compound-containing wells were normalized to DMSO control, and data were analyzed using a 4-parameter logistic model to calculate IC50 values.
Sequence of KRAS^G12C (P01116 1-169 isoform P01116-2 G12C/C118A): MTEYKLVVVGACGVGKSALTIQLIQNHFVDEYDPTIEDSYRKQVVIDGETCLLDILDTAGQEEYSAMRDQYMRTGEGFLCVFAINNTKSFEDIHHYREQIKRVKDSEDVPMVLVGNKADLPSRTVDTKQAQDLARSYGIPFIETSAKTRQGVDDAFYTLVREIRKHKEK

With `C=CC(=O)N1CCN([C@@H]2CN(c3cc(N4CCC5(CC4)OC[C@H](COC)n4ncc(C)c45)nc(C(F)(F)F)n3)[C@@H]2C)CC1` [Compound 3-098], the IC50 (as a rule, the concentration that gives 50% inhibition) in assay [1] (Homo sapiens, MIA PaCa-2, 72 h) is 224 nM; in assay [2] (A549) it was > 5000 nM; in assay [3], 131 nM.

Consider `C=CC(=O)N1CCN([C@@H]2CN(c3cc(N4CCC5(CC4)OCCn4ncc(C)c45)nc(C(F)(F)F)n3)[C@@H]2C)CC1` [Compound 3-076, 1-(4-((2R,3R)-2-Methyl-1-(6-(3′-methyl-6′,7′-dihydrospiro[piperidine-4,4′-pyrazolo[5,1-c][1,4]oxazin]-1-yl)-2-(trifluoromethyl)pyrimidin-4-yl)azetidin-3-yl)piperazin-1-yl)prop-2-en-1-one], for which the IC50 in assay [1] (Homo sapiens, MIA PaCa-2, 72 h) is 214 nM; in assay [2] (A549), > 5000 nM; in assay [3], 72 nM.

On to `C=CC(=O)N1CCN([C@@H]2CN(c3cc(N4CCC5(CC4)OC(C)(C)c4nccc(C)c45)nc(C(F)F)n3)[C@@H]2C)CC1` [Compound 3-096, 1-(4-((2R,3R)-1-(2-(difluoromethyl)-6-(4,7,7-trimethyl-1′H,7H-spiro[furo[3,4-b]pyridine-5,4′-piperidin]-1′-yl)-4-pyrimidinyl)-2-methyl-3-azetidinyl)-1-piperazinyl)-2-propen-1-one], for which the IC50 in assay [1] (Homo sapiens, MIA PaCa-2, 72 h) was 267 nM; in assay [2] (A549) it was > 5000 nM; in assay [3], 69 nM.

`C=CC(=O)N1CCN([C@@H]2CN(c3cc(N4CCC5(CC4)OCC(COC)n4ncc(C)c45)nc(C(F)(F)F)n3)[C@@H]2C)CC1` (stereo partly drawn) [Compound 3-082, 1-(4-((2R,3R)-1-(6-(7′-(methoxymethyl)-3′-methyl-6′,7′-dihydrospiro[piperidine-4,4′-pyrazolo[5,1-c][1,4]oxazin]-1-yl)-2-(trifluoromethyl)pyrimidin-4-yl)-2-methylazetidin-3-yl)piperazin-1-yl)prop-2-en-1-one]: the IC50 in assay [1] (Homo sapiens, MIA PaCa-2, 72 h) was 145 nM; in assay [2] (A549) it was > 5000 nM; in assay [3] it was 69 nM.

In the case of `C=CC(=O)N1CCN(C2CN(c3cc(N4CCC5(CC4)c4ccccc4C(=O)N5C)nc(C(F)(F)F)c3C#N)C2)CC1` [Compound 3-004, 4-(3-(4-Acryloylpiperazin-1-yl)azetidin-1-yl)-6-(2-methyl-3-oxospiro[isoindoline-1,4′-piperidin]-1′-yl)-2-(trifluoromethyl)nicotinonitrile], the IC50 was 527 nM in assay [1] (Homo sapiens, MIA PaCa-2, 72 h); > 5000 nM in assay [2] (A549); 154 nM in assay [3].

In the case of `C=CC(=O)N1CCN(C2CN(c3cc(N4CCC5(CCC(=O)N5)CC4)nc(C(F)(F)F)c3C#N)C2)CC1` [Compound 3-016], the IC50 in assay [1] (Homo sapiens, MIA PaCa-2, 72 h) was > 5000 nM; in assay [2] (A549) it was > 5000 nM; in assay [3] it was 969 nM.

On to `C=CC(=O)N1CCN([C@@H]2CN(c3cc(N4CC[C@]5(C[C@H]4C)OCCn4ncc(C)c45)nc(C(F)F)n3)[C@@H]2C)CC1` [Compound 3-078, 1-(4-((2R,3R)-1-(2-(difluoromethyl)-6-((2R,4R)-2,3′-dimethyl-6′,7′-dihydro-1H-spiro[piperidine-4,4′-pyrazolo[5.1-c][1,4]oxazin]-1-yl)-4-pyrimidinyl)-2-methyl-3-azetidinyl)-1-piperazinyl)-2-propen-1-one], for which the IC50 in assay [1] (Homo sapiens, MIA PaCa-2, 72 h) was 387 nM; in assay [2] (A549), > 5000 nM; in assay [3], 89 nM.

In the case of `C=CC(=O)N1CCN([C@@H]2CN(c3cc(N4CCC5(C[C@H]4C)OCC=C5C)nc(C(F)(F)F)n3)[C@@H]2C)CC1` (stereo partly drawn) [Compound 3-005, 1-(4-((2R,3R)-1-(6-(4.7-dimethyl-1-oxa-8-azaspiro[4.5]dec-3-en-8-yl)-2-(trifluoromethyl)pyr-imidin-4-yl)-2-methylazetidin-3-yl)piperazin-1-yl)prop-2-en-1-one], the IC50 in assay [1] (Homo sapiens, MIA PaCa-2, 72 h) was 626 nM; in assay [2] (A549), > 5000 nM; in assay [3], 184 nM.

`C=CC(=O)N1CCN([C@@H]2CN(c3cc(N4CCC5(CC4)OCC=C5C)nc(C(F)(F)F)c3C#N)[C@@H]2C)CC1` [Compound 3-052, 4-((2R,3R)-3-(4-Acryloylpiperazin-1-yl)-2-methylazetidin-1-yl)-6-(4-methyl-1-oxa-8-azaspiro[4.5]dec-3-en-8-yl)-2-(trifluoromethyl)nicotinonitrile]: the IC50 in assay [1] (Homo sapiens, MIA PaCa-2, 72 h) worked out at 254 nM; in assay [2] (A549), 4550 nM; in assay [3] it was 161 nM.

For `C=CC(=O)N1CCN([C@@H]2CN(c3cc(N4CC[C@]5(C[C@H]4C)OCCc4ncsc45)nc(C(F)(F)F)n3)[C@@H]2C)CC1` (single isomer, unassigned) [Compound 3-091-1], the IC50 in assay [1] (Homo sapiens, MIA PaCa-2, 72 h) was 331 nM; in assay [2] (A549), > 5000 nM; in assay [3], 54 nM.

`C=CC(=O)N1CCN(C2CN(c3cc(N4CCC5(C=CCO5)CC4)nc(C(F)(F)F)c3C#N)C2)CC1` [Compound 3-059, 4-(3-(4-Acryloylpiperazin-1-yl)azetidin-1-yl)-6-(1-oxa-8-azaspiro[4.5]dec-3-en-8-yl)-2-(trifluoromethyl)nicotinonitrile]: the IC50 in assay [1] (Homo sapiens, MIA PaCa-2, 72 h) is 582 nM; in assay [2] (A549), > 5000 nM; in assay [3], 215 nM.

Take `C=CC(=O)N1CCN(C2CN(c3cc(N4CCC5(CC4)OCC=C5C)nc(C(F)(F)F)c3C#N)C2)CC1` [Compound 3-051, 4-(3-(4-Acryloylpiperazin-1-yl)azetidin-1-yl)-6-(4-methyl-1-oxa-8-azaspiro[4.5]dec-3-en-8-yl)-2-(trifluoromethyl)nicotinonitrile]: the IC50 in assay [1] (Homo sapiens, MIA PaCa-2, 72 h) is 284 nM; in assay [2] (A549), > 5000 nM; in assay [3], 102 nM.

With `C=CC(=O)N1CCN([C@@H]2CN(c3cc(N4CCC5(CC4)OCCC=C5C)nc(C(F)(F)F)n3)[C@@H]2C)CC1` [Compound 3-008, 1-(4-((2R.3R)-2-methyl-1-(6-(5-methyl-1-oxa-9-azaspiro[5.5]undec-4-en-9-yl)-2-(trifluorometh-yl)pyrimidin-4-yl)azetidin-3-yl)-piperazin-1-yl)prop-2-en-1-one], the IC50 was found to be 625 nM in assay [1] (Homo sapiens, MIA PaCa-2, 72 h) and 275 nM in assay [3].

On to `C=CC(=O)N1CCN([C@@H]2CN(c3cc(N4CCC5(CC4)OCCc4nccc(C)c45)nc(C(F)(F)F)n3)[C@@H]2C)CC1` [Compound 3-085, 1-(4-((2R,3R)-2-methyl-1-(6-(4′-methyl-7′,8′-dihydrospiro[piperidine-4,5′-pyrano[4,3-b]pyridin]-1-yl)-2-(trifluoromethyl)pyrimidin-4-yl)azetidin-3-yl)piperazin-1-yl)prop-2-en-1-one], for which the IC50 in assay [1] (72 h) is 180 nM; in assay [2], > 5000 nM.

Regarding `C=CC(=O)N1CCN([C@@H]2CN(c3cc(N4CCC5(C[C@@H]4C)OCC=C5C)nc(C(F)F)n3)[C@@H]2C)CC1` (stereo partly drawn) [Compound 3-007, 1-(4-((2R,3R)-1-(2-(difluorometh-yl)-6-(4.7-dimethyl-1-oxa-8-aza-spiro[4.5]dec-3-en-8-yl)pyrimidin-4-yl)-2-methyl-azetidin-3-yl)piper-azin-1-yl)-prop-2-en-1-one], the IC50 in assay [3] amounted to 6570 nM.

In the case of `C=CC(=O)N1CCN(C2CN(c3cc(N4CCC5(C=CCO5)CC4)nc(C(F)F)c3C)C2)CC1` [Compound 3-070, 1-(4-(1-(2-(difluoromethyl)-3-methyl-6-(1-oxa-8-azaspiro[4.5]dec-3-en-8-yl)pyridin-4-yl)azetidin-3-yl)piperazin-1-yl)prop-2-en-1-one], in assay [3], the IC50 was found to be 1400 nM.

For `C=CC(=O)N1CCN(C2CN(c3cc(N4CCC5(C=C[C@H](C)O5)CC4)nc(C(F)(F)F)c3C#N)C2)CC1` [Compound 3-068-2, (S)-4-(3-(4-acryloylpiperazin-1-yl)azetidin-1-yl)-6-(2-methyl-1-oxa-8-azaspiro[4.5]dec-3-en-8-yl)-2-(trifluoromethyl)nicotinonitrile], the IC50 in assay [3] came to 1540 nM. The IC50 values of the last two compounds are within 1.5-fold of each other.

With `C=CC(=O)N1CCN(C2CN(c3cc(N4CCC5(CC4)COc4ccccc45)nc(C(F)(F)F)n3)C2)CC1` [Compound 3-018, 1-(4-(1-(6-(2H-spiro[benzofuran-3,4′-piperidin]-1′-yl)-2-(trifluoro-methyl)pyrimidin-4-yl)azetidin-3-yl)piperazin-1-yl)prop-2-en-1-one], the IC50 in assay [3] stood at 1980 nM.

As to `C=CC(=O)N1CCN([C@@H]2CN(c3cc(N4CCC5(CC4)COc4nccc(C)c45)nc(C(F)F)n3)[C@@H]2C)CC1` [Compound 3-086, 1-(4-((2R,3R)-1-(2-(difluoromethyl)-6-(4-methyl-2H-spiro[furo[2.3-b]pyridine-3,4′-piperidin]-1′-yl)pyrimidin-4-yl)-2-methylazetidin-3-yl)piperazin-1-yl)prop-2-en-1-one], the IC50 in assay [3] worked out at 2910 nM. The IC50 values of the last two compounds are within 1.5-fold of each other.

(Values after patent publication US20260327243A1, “SPIRO-HETEROCYCLIC INHIBITORS OF KRAS G12C MUTANT PROTEINS AND USES THEREOF” (AMGEN INC., priority 2023, published 2026).)
